According to paper PMC9223658, “New Borane-Protected Derivatives of α-Aminophosphonous Acid as Anti-Osteosarcoma Agents: ADME Analysis and Molecular Modeling, In Vitro Studies on Anti-Cancer Activities, and NEP Inhibition as a Possible Mechanism of Anti-Proliferative Activity” (International Journal of Molecular Sciences, 2022):

Tests used:
[1] = system: Saos-2 cells; test: BrdU proliferation assay, 96 h; format: cell-based, human; conditions: Saos-2, 60 µM, cells pre-treated with 100 µM thiorphan for 1 h, 96 h
Protocol: (§1) In the study on the implication of NEP in the anti-proliferative activity of compound 4, cell proliferation was determined with the BrdU assay. Cell cultures were prepared as described above. Depending on the requirements, the HOS and Saos-2 cells were treated with non-cytotoxic concentrations of the NEP inhibitor—thiorphan (1, 5, 20, 100, 200, 500 µM) or pre-treated with thiorphan (100 µM) for 1 h. In this scheme, compound 4 (HOS—25 µM; Saos-2—60 µM) was added alone or in combination with the NEP inhibitor into the cell cultures. Finally, cell proliferation was evaluated with the BrdU Cell Proliferation Assay according to the manufacturer’s instructions (Millipore, Darmstadt, Germany) after a 96-h incubation.
(§2) The results of these assays were calculated as a percent of the untreated cells (100%; control). Then, the IC50 (concentration resulting in 50% inhibition of proliferation) and CC50 (concentration resulting in a 50% decrease in viability) values were calculated from a non-linear regression (log(inhibitor) vs. normalized response-variable slope) using GraphPad Prism 5.0 (GraphPAD Software Inc., San Diego, CA, USA). The IC50 and CC50 results were presented as themean ± SD of at least three experiments. In the case of the BrdU assay, the results were presented as a percent of untreated cells (100%; control).

[2] = system: HOS cells; test: BrdU proliferation assay, 96 h; format: cell-based, human; conditions: 25 µM, cells pre-treated with 100 µM thiorphan for 1 h, 96 h
Protocol: as §1, §2

## [BH3-][P+](OC(C)C)(OC(C)C)C(Nc1ccc(Br)cc1)c1ccc([N+](=O)[O-])cc1 (centres unmarked) [Compound 4, [1-(N-p-bromophenylamino)]-1-(p-nitrophenyl)methylphosphonousacid-borane diisopropyl ester]
[1]
  effect of thiorphan pretreatment on anti-proliferative properties: partially abolished
[2]
  effect of thiorphan pretreatment on anti-proliferative properties: partially abolished
